Biological target: T1, Human eIF4E (aa 28-217) / biotin labeled 4G2 peptide (Homo sapiens, UniProt P06730)
T1 construct: Human eIF4E (aa 28-217) with a C-terminal His-tag; made in house
Test: Human eIF4E/4G2 binding assay (TR-FRET)
Conditions: TR-FRET eIF4E/4G2 peptide binding; 4 hours preincubation with eIF4E at room temperature
Description: Example 3. Compound Testing in Human eIF4E/4G2 Binding Assay
Human eIF4E (aa 28-217) with a C-terminal His-tag was expressed in E. coli in inclusion bodies. The protein was solubilized with 8 M urea and purified under denaturing conditions using nickel-charged HisTrap HP columns (GE Healthcare). The purified protein was then refolded by diluting in 20 mM Hepes pH 7.0, 0.5 M NaCl, 1 mM DTT, 1 mM EDTA, 0.5 M arginine plus 6 M urea, and then dialyzing overnight into the same buffer without the urea. The protein was further dialyzed into 20 mM Hepes, pH 6.5, 50 mM NaCl, 1 mM EDTA, 1 mM DTT, and concentrated using Hitrap SP sepharose FF columns (GE Healthcare). The concentrated protein was dialyzed into 20 mM Hepes, pH 7.0, 0.5M NaCl, 5 mM DTT and 10% glycerol, and stored at −80° C. until use.
Test compounds (3.43 mM stock in DMSO) were diluted 2-fold in series in DMSO (10 concentration points). Compound solutions (1.2 μl/well) were added into black 384-well polypropylene microplates (Matrix, Thermal Scientific). Twenty-two microliters per well of Assay Buffer (50 mM NaPi, pH 6.5, 50 mM KCl, 1 mM DTT and 0.5 mg/ml gamma globulin) and eight microliters per well of 82.5 nM purified eIF4E in Assay Buffer were added. The samples were incubated at room temperature (20-23° C.) for 4 hours. Biotin labeled 4G2 peptide (Ac-Lys-Gln-Tyr-Asp-Arg-Glu-Phe-Leu-Leu-Asp-Phe-Gln-Phe-Met-Pro-Lys(Aha-Bio)-NH2, 1.75 μM stock in DMSO) was diluted to 0.14 μM in Assay Buffer (without DTT) and 5 μl/well was added. The samples were incubated at room temperature for 20 min. Five microliters per well of 6.4 nM Eu-streptavidin (Eu-SA, Perkin Elmer) and 80 nM Allophycocyanin (APC)-anti His antibody (Columbia Biosciences) in Assay Buffer (without DTT) were then added and the samples were incubated at room temperature for 20 min.
Assay signals were monitored by reading excitation at 340 nm and emission fluorescence at 615 nm and 665 nm on an Envision reader (Perkin Elmer). Normalized TR-FRET (time-resolved fluorescence resonance energy transfer) assay signal (Rn) was calculated by the formula: Rn=[(A−Ba−C×D)/(D−Bd)]×(Dc−Bd) Where A is the fluorescence intensity of the sample at 665 nm, D is the fluorescence intensity of the sample at 615 nm, Ba and Bd are plate backgrounds at 665 nm and 615 nm, respectively, Dc is the fluorescence intensity of 0.78 nM Eu-SA in the assay buffer at 615 nm The cross-talk factor (C) is determined by the following formula: C=(Ac−Ba)/(Dc−Bd) Where Ac is the fluorescence intensity of 0.78 nM Eu-SA in the assay buffer at 665 nm.
IC50 values were calculated using xLFit program (IDBS). Table 3 below lists IC50 of some compounds, wherein A represents IC50<0.5 μM; B represents 500 nM<IC50<1 μM; and C represents IC50>1 μM.

T1 sequence (P06730 28-217): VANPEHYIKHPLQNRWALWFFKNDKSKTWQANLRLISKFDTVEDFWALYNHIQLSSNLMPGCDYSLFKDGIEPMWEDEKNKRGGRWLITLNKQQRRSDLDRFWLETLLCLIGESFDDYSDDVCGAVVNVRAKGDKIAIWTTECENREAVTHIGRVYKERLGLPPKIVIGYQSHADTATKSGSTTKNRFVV

| Structure (SMILES) | IC50 [nM] |
| --- | --- |
| CC(C)c1nc(Nc2ncc(C(F)(F)F)cc2C(=O)O)sc1-c1cccc2ccccc12 [I-20] | 500 to 1000 |
| CC(C)c1nc(Nc2ncc(C(F)(F)F)cc2C(=O)O)sc1-c1ccc2ccccc2c1 [I-19] | 500 to 1000 |
| CC(C)CCc1nc(Nc2cc(C3CCCC3)sc2C(=O)O)sc1-c1ccc(-n2ccccc2=O)cc1 [I-13] | < 500 |
| CC(C)CCc1nc(Nc2cc(C3CCCC3)sc2C(=O)O)sc1-c1ccc(Cl)c(Cl)c1 [I-11] | < 500 |
| CC(C)CCc1nc(Nc2ncc(C(F)(F)F)cc2C(=O)O)sc1-c1ccc(Cl)c(Cl)c1 [I-4] | < 500 |
| CC(C)CCc1nc(Nc2ccsc2C(=O)O)sc1-c1ccc(Cl)c(Cl)c1 [I-5] | < 500 |
| CC(C)c1nc(Nc2ncc(-c3cccs3)cc2C(=O)O)sc1-c1ccc(Cl)c(Cl)c1 [I-2, 2-(5-(3,4-Dichlorophenyl)-4-Isopropylthiazol-2-Ylamino)-5-(Thiophen-2-yl)nicotinic acid] | < 500 |
| CC(C)CCc1nc(Nc2ncc(-c3cccs3)cc2C(=O)O)sc1-c1ccc(Oc2ccccc2)cc1 [I-14] | < 500 |
| CC(C)c1nc(Nc2ncc(C(F)(F)F)cc2C(=O)O)sc1-c1ccc(Cl)c(Cl)c1 [I-1, 2-(5-(3,4-Dichlorophenyl)-4-Isopropylthiazol-2-Ylamino)-5-(trifluoromethyl)nicotinic acid] | < 500 |
| CC(C)CCc1nc(Nc2cc(C3CCCC3)sc2C(=O)O)sc1-c1ccc(OC(F)(F)F)cc1 [I-18] | < 500 |
| CC(C)CCc1nc(Nc2ncc(-c3cccs3)cc2C(=O)O)sc1-c1ccc(OC(F)(F)F)cc1 [I-17] | < 500 |
| CC(C)CCc1nc(Nc2ncc(C(F)(F)F)cc2C(=O)O)sc1-c1ccc(-c2ccccn2)cc1 [I-15] | < 500 |
| CC(C)CCc1nc(Nc2ncc(-c3cccs3)cc2C(=O)O)sc1-c1ccc(Cl)c(Cl)c1 [I-3] | < 500 |
| CC(C)CCc1nc(Nc2ncc(-c3cccs3)cc2C(=O)O)sc1-c1ccccc1 [I-8] | < 500 |
| CC(C)CCc1nc(Nc2ncc(C(F)(F)F)cc2C(=O)O)sc1-c1ccc(N2CCOCC2)cc1 [I-16, 2-(4-Isopentyl-5-(4-Morpholinophenyl)Thiazol-2-Ylamino)-5-(trifluoromethyl)nicotinic acid] | > 1000 |
| CC(C)CCc1nc(Nc2cc(-c3ccccc3)sc2C(=O)O)sc1-c1ccc(Cl)c(Cl)c1 [I-6] | < 500 |
| CC(C)CCc1nc(Nc2ncc(-c3cccs3)cc2C(=O)O)sc1-c1ccc(S(C)(=O)=O)cc1 [I-9] | 500 to 1000 |
| CC(C)CCc1nc(Nc2cc(C3CCCC3)sc2C(=O)O)sc1-c1ccc(Oc2ccccc2)cc1 [I-12] | < 500 |
| CC(C)CCc1nc(Nc2ncc(C(F)(F)F)cc2C(=O)O)sc1-c1ccc(S(C)(=O)=O)cc1 [I-10] | 500 to 1000 |
| CC(C)CCc1nc(Nc2ncccc2C(=O)O)sc1-c1ccc(Cl)c(Cl)c1 [I-7] | < 500 |
| CC(C)c1nc(Nc2ncc(C(F)(F)F)cc2C(=O)O)sc1-c1cccs1 [I-21] | 500 to 1000 |

Results, then the compound that gave them:

| IC50 [nM] | Structure (SMILES) |
| --- | --- |
| 500 to 1000 | CC(C)c1nc(Nc2ncc(C(F)(F)F)cc2C(=O)O)sc1-c1csc2ccccc12 [I-32, 2-(5-(benzo[b]thiophen-3-yl)-4-isopropylthiazol-2-ylamino)-5-(trifluoromethyl)nicotinic acid] |
| < 500 | CC(C)c1nc(Nc2ncc(C(F)(F)F)cc2C(=O)O)sc1-c1ccc(C(C)(C)C)cc1 [I-35] |
| 500 to 1000 | COc1ccc(-c2sc(Nc3ncc(-c4cccs4)cc3C(=O)O)nc2C(C)C)cc1Cl [I-50] |
| > 1000 | CC(C)c1nc(Nc2ncc(C(F)(F)F)cc2C(=O)O)sc1-c1ccccn1 [I-46, 2-(4-isopropyl-5-(pyridin-2-yl)thiazol-2-ylamino)-5-(trifluoromethyl)nicotinic acid] |
| < 500 | CC(C)Cc1nc(Nc2ncc(C(F)(F)F)cc2C(=O)O)sc1-c1ccc2ccccc2c1 [I-30] |
| 500 to 1000 | CC(C)c1nc(Nc2ncc(C(F)(F)F)cc2C(=O)O)sc1-c1ccc(Cl)cc1F [I-37, 2-(5-(4-chloro-2-fluorophenyl)-4-isopropylthiazol-2-ylamino)-5-(trifluoromethyl)nicotinic acid] |
| < 500 | COc1ccc(-c2sc(Nc3ncc(-c4cccs4)cc3C(=O)O)nc2C2CC2)cc1Cl [I-52, 2-((5-(3-chloro-4-methoxyphenyl)-4-cyclopropylthiazol-2-yl)amino)-5-(thiophen-2-yl)nicotinic acid] |
| 500 to 1000 | COc1ccc(-c2sc(Nc3ncc(C(F)(F)F)cc3C(=O)O)nc2C(C)C)cc1F [I-43] |
| 500 to 1000 | CC(C)c1nc(Nc2ncc(C(F)(F)F)cc2C(=O)O)sc1C1=CCCCC1 [I-23] |
| 500 to 1000 | CC(C)c1nc(Nc2ncc(C(F)(F)F)cc2C(=O)O)sc1-c1ccc(Cl)s1 [I-48] |
| < 500 | CC(C)c1nc(Nc2ncc(C(F)(F)F)cc2C(=O)O)sc1-c1ccc(-c2cccs2)cc1 [I-24, 2-(4-Isopropyl-5-(4-(Thiophen-2-Yl)Phenyl)Thiazol-2-Ylamino)-5-(trifluoromethyl)nicotinic acid] |
| > 1000 | COc1ccc(-c2sc(Nc3ncc(C(F)(F)F)cc3C(=O)O)nc2C(C)C)cc1OC [I-42] |
| 500 to 1000 | CC(C)c1nc(Nc2ncc(C(F)(F)F)cc2C(=O)O)sc1-c1ccc(Cl)cc1Cl [I-31, 2-(5-(2,4-dichlorophenyl)-4-isopropylthiazol-2-ylamino)-5-(trifluoromethyl)nicotinic acid] |
| 500 to 1000 | COc1cc(Cl)ccc1-c1sc(Nc2ncc(C(F)(F)F)cc2C(=O)O)nc1C(C)C [I-40] |
| > 1000 | COc1ccc(-c2sc(Nc3ncc(C(F)(F)F)cc3C(=O)O)nc2C(C)C)c(OC)c1 [I-47] |
| 500 to 1000 | CC(C)c1nc(Nc2ncc(C(F)(F)F)cc2C(=O)O)sc1-c1ccc(C(F)(F)F)cc1 [I-25] |

| IC50 [nM] | Structure (SMILES) |
| --- | --- |
| < 500 | CC(C)c1nc(Nc2ncc(C(F)(F)F)cc2C(=O)O)sc1-c1ccc(C(F)(F)F)c(F)c1 [I-39] |
| 500 to 1000 | CC(C)c1nc(Nc2ncc(C(F)(F)F)cc2C(=O)O)sc1-c1ccsc1 [I-22] |
| 500 to 1000 | CC(C)c1nc(Nc2ncc(C(F)(F)F)cc2C(=O)O)sc1-c1ccc(OC(F)F)cc1 [I-44] |
| 500 to 1000 | CC(C)c1ccc(-c2sc(Nc3ncc(C(F)(F)F)cc3C(=O)O)nc2C(C)C)cc1 [I-34] |
| < 500 | CC(C)c1nc(Nc2ncc(C(F)(F)F)cc2C(=O)O)sc1-c1ccc(-c2ccccc2)cc1 [I-38] |
| 500 to 1000 | CC(C)c1nc(Nc2ncc(C(F)(F)F)cc2C(=O)O)sc1-c1ccc(C(F)(F)F)cc1Cl [I-33] |
| < 500 | CC(C)c1nc(Nc2ncc(C(F)(F)F)cc2C(=O)O)sc1-c1ccc(OCc2ccccc2)cc1 [I-45] |
| 500 to 1000 | COc1ccc(-c2sc(Nc3ncc(C(F)(F)F)cc3C(=O)O)nc2C(C)C)cc1Cl [I-51] |
| 500 to 1000 | COc1ccc(-c2sc(Nc3ncc(-c4cccs4)cc3C(=O)O)nc2C)cc1Cl [I-53] |
| < 500 | COc1ccc(-c2sc(Nc3ncc(-c4cccs4)cc3C(=O)O)nc2C2CC2)cc1 [I-54] |
| 500 to 1000 | CC(C)c1nc(Nc2ncc(C(F)(F)F)cc2C(=O)O)sc1-c1ccc(F)cc1F [I-36] |
| 500 to 1000 | CC(C)c1nc(Nc2ncc(-c3ccccc3)cc2C(=O)O)sc1C1=CCCCC1 [I-27, 2-(5-cyclohexenyl-4-isopropylthiazol-2-ylamino)-5-phenylnicotinic acid] |
| < 500 | CC(C)c1nc(Nc2ncc(C(F)(F)F)cc2C(=O)O)sc1-c1ccc(-c2ccccc2)s1 [I-49] |
| 500 to 1000 | COc1ccc(-c2sc(Nc3ncc(C(F)(F)F)cc3C(=O)O)nc2C(C)C)cc1 [I-41] |
| 500 to 1000 | COc1cc(-c2sc(Nc3ncc(-c4cccs4)cc3C(=O)O)nc2CC(C)C)ccc1F [I-55] |
